The record followed here is patent publication US6878388B1, “Vanadium compounds for treating proliferative cell disorders” (Parker Hughes Institute, priority 2000, dated 2005).

SMILES strings stand for the structures.

Assay [1] deals with U87 cells. The experiment in a line: In vitro invasion assay, Matrigel-coated Boyden chambers, U87. The assay is classed as cell-based, human. The note with it: 24 h preincubation, 3 experiments, read-out: Mean IC50 inhibition of invasion through Matrigel matrix. As to the method:
Tumor invasion of the basement membrane is a crucial step in the complex multistage process that leads to metastatic spread. Tumor cells cross the basement membrane as they initially invade the lymphatic or vascular beds during dissemination and as they penetrate their target tissues. […]
Invasion of cancer cells treated with [VO(SO4)(Me2-Phen)2] was assayed using Matrigel-coated Costar 24-well transwell cell culture chambers (“Boyden chambers”) with 8.0-μm-pore polycarbonate filter inserts as described previously (Narla et al., Clin Cancer Res, 4: 2463-2471, 1998; Ghosh et al., Anticancer Drug Des, 14: 403-410, 1999; Albini et al., J Cell Biol, 105: 1867-1872, 1987). […] The cells were trypsinized, washed twice with serum-free medium containing BSA, counted and resuspended in a serum-free medium at 1×10^5 cells/ml. […] The invasive cells that migrated to the lower side of the filter were fixed, stained with Hema-3 solution and counted under a light microscope. Five to 10 random fields per filter were counted to determine the invasive fraction. The invasive fractions of cells treated with [VO(SO4)(Me2-Phen)2] were compared to those of DMSO-treated control cells and the percent inhibition of invasiveness was determined. […]

The subject of assay [2] is U373 glioblastoma cell spheroids. The experiment in a line: Spheroid migration assay. The assay is classed as cell-based, human. The note with it: for inhibition of tumor cell migration from the spheroids / migration distance: U373 spheroids; for migration distance: 48 h (DMSO control 745±29 μm). The procedure: Dissociation and migration are the initial steps for infiltration of tumor cells into the surrounding tissue (Pilkington et al., Anticancer Res., 17: 4107-4109, 1997; Giese et al., Neurosurgery, 39: 235-252, 1996; Chintala et al., Front Biosci, 1: d324-39, 1996). Migration of brain tumor cells was monitored using U373 glioblastoma cell spheroids, as described previously (Narla et al., Clin Cancer Res, 4:2463-2471, 1998). Glioblastoma cell spheroids were cultured in 100 mm^2 tissue culture plates precoated with 0.75% agar prepared in MEM supplemented with 10% fetal bovine serum. The cells (5×10^6 cells) were suspended in the medium, seeded onto agar-coated plates and cultured for 5-7 days at 37° C. Spheroids with a diameter of 200-400 μm were selected for use in further experiments. For the migration experiments, the selected spheroids were incubated for 2 hours at 37° C. in serum-free medium containing [VO(SO4)(Me2-Phen)2] in concentrations ranging from 1 μM to 25 μM. The [VO(SO4)(Me2-Phen)2]-treated and vehicle control (DMSO, 0.1%) spheroids were transferred onto fibronectin-coated coverslips (Becton Dickinson, Bedford, Mass.) and placed in 6-well plates containing the same concentrations of [VO(SO4)(Me2-Phen)2] or DMSO in serum-free medium. Spheroids were then kept in a humidified 5CO2 incubator at 37° C. for 48 hours. A total of 4-6 spheroids were used for each concentration. Following the 48 hours incubation period, the spheroids were fixed and stained with Hema-3 solutions and mounted onto glass slides. The distance of tumor cell migration from the spheroid was measured using an ocular micrometer and a transmitted light microscope.
Spheroids measuring 259.2±41.9 μm in diameter were incubated with [VO(SO4)(Me2-Phen)2] or DMSO on fibronectin-coated coverslips. The U373 gioblastoma cells incubated with DMSO rapidly migrated to a distance 745±29 μm away from the spheroid.

In the case of `Cc1ccnc2c1ccc1c(C)ccnc12.Cc1ccnc2c1ccc1c(C)ccnc12.O=S(=O)([O-])[O-].[O]=[V+2]` [[VO(SO4)(Me2-Phen)2], bis(4,7-dimethyl-1,10-phenanthroline) sulfatooxovanadium (IV)], the IC50 in assay [1] turned out to be 0.78 ± 0.4 µM; in assay [2] (U373 spheroids on fibronectin-coated coverslips, 48 h, read-out: IC50 inhibition of tumor cell migration), 1.4 ± 0.2 µM. In addition, the “inhibition of tumor cell migration from the spheroids” value in assay [2] (1 μM, 48 h) stood at 58.3±7.3%; in assay [2] (2 μM, 48 h), 71.2±3.4%. The migration distance is on record as 311.1±54.4 μm in assay [2] (1 μM) and 214.9±25.7 μm in assay [2] (2 μM).
